Laboratory results as given in US11919918B2, “P2X3 andor P2X2/3 receptor antagonist, pharmaceutical composition comprising same, and use thereof” (BEIJING TIDE PHARMACEUTICAL CO., LTD., priority 2017, dated 2024).
pIC50: −log10 of the molar value.

How the values were obtained:
human P2X3 receptor = human P2X3 receptor (Homo sapiens (Human), UniProt P56373); assay: Inhibitory activity on human P2X3 receptor (calcium 6 dye FLIPR assay, agonist α,β-MeATP); assay type: cell-based; settings: HEK293-P2X3 stably expressing cell line, FLIPR Tetra
human P2X2/3 receptor = human P2X2/3 receptor (Homo sapiens (Human), UniProt P56373+Q9UBL9); assay: Inhibitory activity on human P2X2/3 receptor (calcium 6 dye FLIPR assay, agonist α,β-MeATP); assay type: cell-based; settings: HEK293-P2X2/3 stably expressing cell line, FLIPR Tetra
Sequence of human P2X2/3 receptor (Q9UBL9 whole entry): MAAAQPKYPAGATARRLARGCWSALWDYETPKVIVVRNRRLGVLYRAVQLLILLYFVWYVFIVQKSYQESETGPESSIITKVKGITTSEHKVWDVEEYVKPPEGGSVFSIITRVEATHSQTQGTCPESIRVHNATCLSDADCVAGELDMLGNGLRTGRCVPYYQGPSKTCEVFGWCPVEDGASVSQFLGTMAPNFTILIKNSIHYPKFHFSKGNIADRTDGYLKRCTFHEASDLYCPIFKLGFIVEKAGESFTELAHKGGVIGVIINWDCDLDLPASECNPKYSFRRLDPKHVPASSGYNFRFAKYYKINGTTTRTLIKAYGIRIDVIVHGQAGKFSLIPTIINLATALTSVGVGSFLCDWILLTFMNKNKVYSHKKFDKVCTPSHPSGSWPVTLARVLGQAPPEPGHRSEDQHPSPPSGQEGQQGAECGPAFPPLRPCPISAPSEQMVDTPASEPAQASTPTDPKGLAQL
Sequence of human P2X2/3 receptor (P56373 whole entry): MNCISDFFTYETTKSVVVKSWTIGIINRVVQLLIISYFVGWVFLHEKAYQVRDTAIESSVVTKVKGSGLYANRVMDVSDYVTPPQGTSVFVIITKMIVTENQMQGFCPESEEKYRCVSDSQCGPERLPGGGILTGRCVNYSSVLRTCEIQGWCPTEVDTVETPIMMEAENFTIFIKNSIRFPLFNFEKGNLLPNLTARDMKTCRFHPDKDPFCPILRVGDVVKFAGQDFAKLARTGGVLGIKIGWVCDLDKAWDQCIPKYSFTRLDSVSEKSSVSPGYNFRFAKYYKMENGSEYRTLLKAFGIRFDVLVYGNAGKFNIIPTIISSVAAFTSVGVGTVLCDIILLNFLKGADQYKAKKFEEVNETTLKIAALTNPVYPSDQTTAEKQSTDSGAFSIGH

Sequence of human P2X3 receptor (P56373 whole entry): as above

Compound | pIC50 (human P2X3 receptor) | pIC50 (human P2X2/3 receptor)
CC(C)c1cnc(Br)cc1Oc1cnc(N)nc1NCCN [Compound C199, N^4-(2-aminoethyl)-5-((2-bromo-5-isopropylpyridin-4-yl)oxy)pyrimidine-2,4-diamine] | 6.73 | 6.48
CC(C)c1cnc(Br)cc1Oc1cnc(N)nc1NC(CO)CO [Compound C153, 2-((2-amino-5-((2-bromo-5-isopropylpyridin-4-yl)oxy)pyrimidin-4-yl)amino) propane-1,3-diol] | 7.08 | 7.02
CCc1cnc(OC)cc1Oc1cnc(N)nc1N [Compound C165, 5-((5-ethyl-2-methoxy-pyridin-4-yl)oxy) pyrimidine-2,4-diamine] | 6.79 | 6.47
CC(C)CNc1nc(N)ncc1Oc1cc(C2CC2)ncc1C(C)C [Compound C194, 5-((2-cyclopropyl-5-isopropyl-pyridin-4-yl)oxy)-N^4-isobutyl-pyrimidine-2,4-diamine] | 6.49 | 6.35

The next molecules have a higher pIC50 (human P2X3 receptor) than those just listed; values first:

pIC50 (human P2X3 receptor) | pIC50 (human P2X2/3 receptor) | Compound
7.32 | 7.40 | CC(C)c1cnc(Br)cc1Oc1cnc(N)nc1NNC(=O)OC(C)(C)C [Compound C222, tert-butyl 2-(2-amino-5-((2-bromo-5-isopropylpyridin-4-yl)oxy)pyrimidin-4-yl)hydrazine-1-carboxylate]
7.14 | 7.34 | CCN(C)CCNc1nc(N)ncc1Oc1cc(Br)ncc1C(C)C [Compound C154, 5-((2-bromo-5-isopropylpyridin-4-yl)oxy)-N^4-(2-(ethyl(methyl)amino)ethyl)pyrimidine-2,4-diamine]
